In patent publication US20250179029A1, “DEUTERATED RETINOIDAL COMPOUNDS AND SYNTHESIS AND USES THEREOF” (UNIVERSITY OF MARYLAND, BALTIMORE, priority 2022, published 2025):

Assays:
[1] = tested on: SKBR3; experiment: MTT antiproliferative assay, SKBR3 non-TNBC cells; type: cell-based; settings: mean of three independent experiments
Procedure: (§1) Compounds 2, 4, 8 and 9, as well as paclitaxel (PTX) were evaluated over a range of concentrations to examine their antiproliferative activities against two non-TNBC cell lines, MCF7 and SKBR3using the well-established 3-(4,5-dimethylthiazolyl-2)-2,5-diphenyl tetrazolium bromide (MTT) assay.^48,55,56 The parent non-deuterated VNLG-152R (Compound 2) was used as the positive control.
(§2) As presented in Table 1 below, the GI50 values of the deuterated Compounds 4, 8 and 9 against the MCF7 cell are identical to the GI50 value of the parent protio VNLG-152R (Compound 2). In contrast, the SKBR3 cell appears to be more sensitive to the deuterated compounds compared to the parent non-deuterated VNLG-152R (Compound 2). The reason for this difference is not understood at this time. The applicant hypothesizes that the enhanced diffusion of these deuterated molecules across the cell membrane of this cell line may result in enhanced intracellular concentrations and inhibition of its proliferation. Each data point is a mean of replicates from three independent experiments.

[2] = tested on: MDA-MB-468 tumor xenograft; experiment: Anti-tumor activity in MDA-MB-468 xenograft mouse model; type: in vivo; settings: 20 mg/kg, PO, 5 days/week, 16 days
Procedure: (§3) FIGS. 13A-13D show the anti-tumor activity of VNLG-152R, Compound 4, Compound 8, and Compound 9 in xenograft mouse models. […] In FIGS. 13B and 13D, *=p<0.0001.
(§4) After confirming the improved pharmacokinetic parameters of deuterated compounds 4, 8, and 9, the anti-tumor activity of these compounds was tested in xenograft models of MDA-MB-231 and MDA-MB-468. In both models, the mice for each group were treated with either vehicle (control) or the compounds, each at 20 mg/kg, PO, 5 days/week.

[3] = tested on: Mnk1, peIF4E, eIF4E, cyclin D1, Bcl-2, Bax in MDA-MB-231 cells; experiment: Western blotting of Mnk1 and downstream targets in MDA-MB-231 cells; type: cell-based, human; settings: MDA-MB-231, 5, 10 and 20 µM, 24 h, Western blot
From the text: The applicant had previously reported that the antiproliferative effects of Compound 1 and our other Mnk1/2 degraders in breast cancer cells was due to degradation of Mnk1/2 with consequent depletion of peIF4E and modulation of the downstream molecular targets.^48,55,56 Thus, the deuterated analogs were further examined for their effects on the degradation of Mnk1 and the other related downstream molecular targets in both MDA-MB-231 and MDA-MB-468 TNBC cells by Western blotting analysis.
The human breast cancer cell lines, MDA-MB-231, MDA-MB-468 were procured from ATCC (Manassas, VA) and cultured in the recommended media supplemented with 10% heat-inactivated standard fetal bovine serum (FBS, GIBCO) and 1% penicillin-streptomycin (10,000 U/ml, Life Technologies) at 37° C. and 5% CO2. Primary antibodies against Mnk1, eIF4E, p-eIF4E, Cyclin D1, BCL2, BAX, β-actin, and secondary RP-conjugated anti-rabbit used in the study were procured from Cell Signaling Technology, USA. Cells were lysed with radioimmunoprecipitation assay (RIPA) buffer supplemented with 1× protease inhibitors (Roche, Indianapolis, IN, USA), phosphatase inhibitors (Thermo Scientific, Waltham, MA, USA), 1 mmol/L EDTA and 1 mmol/L PMSF (Sigma) and immunoblotting analyses were performed as described previously.^48,64
The non-deuterated VNLG-152R (Compound 2) and the vehicle, DMSO were used as positive and negative controls, respectively. Equal protein concentrations from breast cancer cells treated with the compounds at different concentration (5, 10 and 20 µM) for 24 h were separated by SDS-PAGE and Western blots probed with the respective protein antibodies. Vehicle treated cells were included as a control, and all blots were reprobed for R-actin for loading control.

[4] = tested on: androgen-sensitive and castration-resistant human prostate cancer cells; settings: androgen-sensitive and castration-resistant human prostate cancer cells in vitro; cited from earlier work
[5] = Plasma pharmacokinetics after single oral dose in female CD-1 mice; type: in vivo
Procedure: The PK study was performed by the Certified Research Organization (CRO), Aragen Life Sciences Private Limited (Aragen), Hyderabad, India. All procedures of the present study were in accordance with the guidelines provided by the Committee for the Purpose of Control and Supervision of Experiments on Animals (CPCSEA) as published in The Gazette of India, Jan. 7, 2010. CPCSEA renewal number for institute is 1125/PO/Rc/S/CPCSEA on 13Feb. 2014. Institutional Animal Ethics Committee (IAEC) approval has been taken to initiate the study (IAEC Approval Number: B-011A). The details are presented in the Supplementary Materials.
To minimize the number of mice used in the PK study using a validated LC/MS/MS analysis, both individual (discrete) (set #1: Compound 5, EM=463.2937 and set #2: […], EM=463.2937) and cassette (set #3: Compounds 2, 3, and 7; EMs=459.2686, 462.2874 and 466.3125, respectively, and set #4: Compounds 4, 8, and 9; EMs=460.2749, 464.2999 and 467.3188, respectively) dosing were used.^59,66 The four sets studied were dictated by the exact molecular masses of the compounds as indicated above and in FIG. 3.
The plasma PK profiles were obtained after single oral (PO) dosing of the compounds in mice.
In Table 2, data are presented as the mean of values obtained from three female CD-1 mice. Cmax is the maximum observed plasma concentration. Tmax is the time to maximum concentration. T1/2 is the elimination half-life. AUC represents AUC (0-∞), which is the area under the concentration-time curve from time of dosing extrapolated to infinity. MRT refers to mean residence time. The number in parentheses indicate the rank order from best (1) to worst (8).

[6] = tested on: MCF7; experiment: MTT antiproliferative assay, MCF7 non-TNBC cells; type: cell-based; settings: mean of three independent experiments
Procedure: as §1, §2

[7] = tested on: Mnk1, peIF4E, cyclin D1 in MDA-MB-231 cells; experiment: Western blotting of Mnk1 and downstream targets in MDA-MB-231 cells (mechanism study); type: cell-based, human; settings: MDA-MB-231, 24 hours, FIG. 14B
Procedure: FIGS. 14A and 14B show the in vitro effects of VNLG-152R on synoviolin 1 (SYVN1) and other targets in MDA-MB-231 cells.
After confirming the anti-tumor effect of VNLG-152R, the molecular mechanism of VNLG-152R was studied, in order to help identify potential new molecular targets for treatment. Using an established procedure^70,71, a label-free proteomics analysis was conducted. MDA-MB-231 cells were treated for 24 hours with VNLG-152R in the concentrations indicated in FIGS. 14A and 14B, followed by Western blotting of whole cell lysates.

[8] = tested on: MDA-MB-231 tumor xenograft; experiment: Anti-tumor activity in MDA-MB-231 xenograft mouse model; type: in vivo; settings: 20 mg/kg, PO, 5 days/week, 16 days
Procedure: as §3, §4

[9] = single p.o. dose 10 mg/kg, female CD-1 mice, plasma

- GI50 [1]: 260 ± 120 nM
- clearance from systemic circulation (plasma concentration versus time profile) ([5]; single PO dosing, mice, FIGS. 12A-12C): could not be detected after 8 hours
- AUC (0-∞) [5, 9]: 22764.75 ng·h/mL
- MRT (mean residence time) [5, 9]: 3.02 h
- T1/2 (elimination half-life) [5, 9]: 3.61 h
- Tmax [5, 9]: 0.83 h
- Cmax ([5]; single p.o. dose 10 mg/kg, female CD-1 mice, plasma, mean of three mice): 4651.88 ng/mL
- GI50 [6]: 350 ± 110 nM
Structure (SMILES): CC1=C(/C=C/C(C)=C/C=C/C(C)=C/C(=O)Nc2ccc(F)cc2)C(C)(C)CCC1n1ccnc1 (racemic) [Compound 2, (±) 4-Imidazolyl-4(H)-(4′-fluoro(phenyl))-(E)-retinamide]
- reduction of tumor growth [2]: 81%
- expression of Mnk1 [3]: significantly and dose-dependently reduced
- expression of peIF4E [3]: significantly and dose-dependently reduced
- expression of total eIF4E [3]: without noticeable effects
- anti-proliferative and anti-metastatic activities [4]: potent
- Mnk1 level [7]: dose-dependent Mnk1 depletion
- cyclin D1 level [7]: suppression
- peIF4E level [7]: suppression
- reduction of tumor growth [8]: 87%
